Reference: ChEMBL document CHEMBL1201862, “PubChem BioAssay data set” (2004)
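Assay format: 96-well plates, 48-hour exposure. The concentration for 50% growth inhibition is given as GI50.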 The source made the active and inactive calls. Cut-off read from the data, not from the text of the source: active = GI50 up to about 1.1 µM and inactive = higher.

Tests used:
Experiment in all cases: NCI tumour cell line growth inhibition, 48 h
786-0 = tested on: 786-0
A549 = tested on: A549
CAKI-1 = tested on: CAKI-1
EKVX = tested on: EKVX
HCT-116 = tested on: HCT-116
HOP-62 = tested on: HOP-62
HOP-92 = tested on: HOP-92
KM12 = tested on: KM12
NCI-H522 = tested on: NCI-H522
OVCAR-3 = tested on: OVCAR-3
OVCAR-8 = tested on: OVCAR-8
RPMI-8226 = tested on: RPMI-8226
SF-268 = tested on: SF-268
SF-295 = tested on: SF-295
SK-MEL-28 = tested on: SK-MEL-28
SN12C = tested on: SN12C
SNB-19 = tested on: SNB-19
SNB-75 = tested on: SNB-75
TK-10 = tested on: TK-10
SR = tested on: SR

Measured: GI50

COC1CC(OC2CCC3(C)C(=CCC4C3C(OC(C)=O)C(OC(=O)CC(C)C)C3(C)C(C(C)=O)CCC43O)C2)OC(C)C1OC1CC(OC)C(OC2CC(OC)C(OC3OC(C)C(OC4OC(CO)C(O)C(O)C4O)C(OC)C3O)C(C)O2)C(C)O1 (stereo not drawn)
inactive: 786-0 > 75 µM | A549 > 75 µM | CAKI-1 > 75 µM | EKVX > 75 µM | HCT-116 > 75 µM | HOP-62 11.6 µM | HOP-92 > 75 µM | KM12 > 75 µM | NCI-H522 > 75 µM | OVCAR-3 > 75 µM | OVCAR-8 > 75 µM | RPMI-8226 > 75 µM | SF-268 > 75 µM | SF-295 > 75 µM | SK-MEL-28 > 75 µM | SN12C > 75 µM | SNB-19 > 75 µM | SNB-75 > 75 µM | TK-10 > 75 µM

O=C(c1ccc2ccccc2c1O)N1CCCCC1
inactive: 786-0 > 100 µM | CAKI-1 > 100 µM | EKVX 61.4 µM | HCT-116 65.8 µM | HOP-62 > 100 µM | HOP-92 78.9 µM | KM12 > 100 µM | OVCAR-8 68.2 µM | RPMI-8226 27.4 µM | SF-268 > 100 µM | SF-295 92.9 µM | SK-MEL-28 > 100 µM | SNB-19 > 100 µM | SNB-75 > 100 µM | SR > 10 µM | TK-10 > 100 µM

COc1ccc(/C(Cl)=C(\C=O)c2ccc(Cl)c(Cl)c2)cc1
inactive: CAKI-1 9.12 µM | EKVX 17.1 µM | HCT-116 3.83 µM | HOP-62 13.3 µM | HOP-92 6.07 µM | NCI-H522 2.51 µM | OVCAR-3 17.9 µM | OVCAR-8 5.57 µM | RPMI-8226 2.56 µM | SF-268 5.3 µM | SF-295 9.12 µM | SK-MEL-28 14.4 µM | SN12C 7.1 µM | SNB-19 16.2 µM | SNB-75 3.04 µM | TK-10 18 µM

CC(=O)/C(=C\c1ccc(Cl)c(Cl)c1)C(=O)C(C)CN(C)C (stereo not drawn)
inactive: 786-0 2.39 µM | A549 14.5 µM | CAKI-1 4.48 µM | EKVX 14.2 µM | HCT-116 2.13 µM | HOP-62 19.1 µM | HOP-92 2.26 µM | KM12 2.18 µM | OVCAR-3 4.1 µM | OVCAR-8 1.91 µM | RPMI-8226 1.32 µM | SF-268 3.62 µM | SF-295 4.32 µM | SK-MEL-28 6.89 µM | SN12C 6.73 µM | SNB-19 1.8 µM | SR 1.82 µM | TK-10 1.94 µM

CC(C)OP(=O)(OC(C)C)c1nc(-c2ccccc2)n(-c2ccc([N+](=O)[O-])cc2)n1
inactive: A549 > 100 µM | CAKI-1 > 100 µM | EKVX > 100 µM | HCT-116 > 100 µM | HOP-62 > 100 µM | HOP-92 > 100 µM | KM12 > 100 µM | NCI-H522 98.9 µM | OVCAR-3 > 100 µM | OVCAR-8 > 100 µM | RPMI-8226 > 100 µM | SF-268 > 100 µM | SF-295 > 100 µM | SK-MEL-28 > 100 µM | SN12C > 100 µM | SNB-19 > 100 µM | SNB-75 > 100 µM | TK-10 > 100 µM

COc1ccccc1CC(C)N (stereo not drawn)
inactive: 786-0 > 100 µM | A549 > 100 µM | CAKI-1 > 100 µM | EKVX > 100 µM | HCT-116 > 100 µM | HOP-62 > 100 µM | HOP-92 > 100 µM | KM12 > 100 µM | NCI-H522 > 100 µM | OVCAR-3 > 100 µM | OVCAR-8 > 100 µM | RPMI-8226 > 100 µM | SF-268 > 100 µM | SF-295 > 100 µM | SK-MEL-28 > 100 µM | SN12C > 100 µM | SNB-19 > 100 µM | SNB-75 > 100 µM | TK-10 > 100 µM

C/C(Cl)=N\OC(=O)Nc1ccccc1C(F)(F)F
inactive: 786-0 17.9 µM | A549 > 100 µM | CAKI-1 > 100 µM | EKVX 19.9 µM | HCT-116 33.4 µM | HOP-92 6.61 µM | KM12 > 100 µM | OVCAR-3 15.8 µM | OVCAR-8 38.9 µM | RPMI-8226 21 µM | SF-268 > 100 µM | SF-295 > 100 µM | SK-MEL-28 17.8 µM | SN12C > 100 µM | SNB-19 > 100 µM | SNB-75 20.9 µM | SR 17.1 µM | TK-10 15.4 µM

COC(=O)C1CCCN1C(=O)OC(C)(C)C (stereo not drawn)
inactive: 786-0 > 100 µM | A549 > 100 µM | CAKI-1 > 100 µM | EKVX > 100 µM | HCT-116 > 100 µM | HOP-62 > 100 µM | KM12 > 100 µM | OVCAR-3 > 100 µM | SF-268 65.3 µM | SF-295 > 100 µM | SK-MEL-28 > 100 µM | SN12C > 100 µM | SNB-19 > 100 µM | SNB-75 > 100 µM | SR > 100 µM | TK-10 > 100 µM

O=c1[nH]c(C2CCCCC2)nc2ccc(Cl)cc12
inactive: 786-0 > 100 µM | A549 > 100 µM | EKVX > 100 µM | HCT-116 > 100 µM | HOP-92 > 100 µM | KM12 > 100 µM | OVCAR-3 > 100 µM | OVCAR-8 > 100 µM | RPMI-8226 > 100 µM | SF-268 > 100 µM | SF-295 > 100 µM | SK-MEL-28 > 100 µM | SN12C > 100 µM | SNB-19 > 100 µM | SNB-75 38.3 µM | SR > 100 µM | TK-10 > 100 µM

Cc1cn(C2CC(N(O)Cc3ccccc3)C(CO)O2)c(=O)[nH]c1=O (stereo not drawn)
inactive: 786-0 5.24 µM | A549 > 100 µM | EKVX > 100 µM | HCT-116 > 100 µM | HOP-62 > 100 µM | KM12 > 100 µM | OVCAR-3 > 100 µM | OVCAR-8 > 100 µM | RPMI-8226 > 100 µM | SF-268 > 100 µM | SF-295 > 100 µM | SK-MEL-28 > 100 µM | SN12C > 100 µM | SNB-19 > 100 µM | SNB-75 > 100 µM | SR > 100 µM | TK-10 > 100 µM

COc1ccc(-c2c(-c3ccccc3)c(C)nc3[nH]c(=S)[nH]c(=S)c23)cc1OC
inactive: 786-0 35.6 µM | A549 30.3 µM | CAKI-1 47 µM | EKVX 54.8 µM | HCT-116 22 µM | HOP-62 33.1 µM | HOP-92 33.8 µM | KM12 18.5 µM | NCI-H522 27.1 µM | OVCAR-3 20.3 µM | OVCAR-8 42 µM | RPMI-8226 21.6 µM | SF-268 23.9 µM | SF-295 42.1 µM | SK-MEL-28 22.1 µM | SN12C 21.6 µM | SNB-19 60.3 µM | SNB-75 42 µM | TK-10 45.7 µM
